{"source": "patent US12404345B2", "about": "“Humanized antibodies against iRHOM2” (SCIRHOM GMBH, priority 2021, dated 2025)", "test_system": "PMA-induced release of endogenous TGFα from human PC3 prostate cancer cells", "assay": "ELISA-based TGFα release assay, PMA-induced, PC3 cells", "format": "cell-based", "conditions": "PC-3, Batimastat 10 μM, PMA 25 ng/ml, 2 hours", "description": "In the following study, ELISA-based TGFα release assays were performed to analyze the inhibitory effects of the antibodies of the invention on PMA-induced release of endogenous TGFα from human PC3 prostate cancer cells.\nIn brief, on day 1, Nunc black MaxiSorp® 96-well plates (Thermo Fisher Scientific, USA) were coated overnight with 100 μl per well of goat anti-human TGFα capture antibody (provided as part of the DuoSet ELISA kit) at 0.4 μg/ml TBS at 4° C. 80,000 PC3 (European Collection of Authenticated Cell Cultures, UK) cells in 100 μl of normal growth medium were seeded in each well of F-bottom 96-well cell culture plates (Corning, USA) and incubated at 37° C., 5% CO2 overnight. On day 2, the capture antibody solution was removed and MaxiSorp® plates were blocked with 300 μl per well of TBS, 1% BSA at room temperature for 1-2 hours. […] Using an infinite M1000 (Tecan Group, Switzerland) microplate reader, the fluorescence of each well was collected at an excitation wavelength of 435 nm and an emission wavelength of 555 nm."}
{"smiles": "CNC(=O)[C@H](Cc1ccccc1)NC(=O)[C@H](CC(C)C)[C@H](CSc1cccs1)C(=O)NO", "note": "[Batimastat]", "values": [{"measurement": "inhibition at 10 µM", "value": 90.7, "unit": "%"}]}
